What was measured:
[1] = target: T1, rat M1 muscarinic receptor (Rattus norvegicus, UniProt P08482); assay: metabolic rate of M1C-2 cells (B82 cells transfected with rat M1 muscarinic receptor); details: atropine alone, FIG. 28
T1 sequence (P08482 1-460): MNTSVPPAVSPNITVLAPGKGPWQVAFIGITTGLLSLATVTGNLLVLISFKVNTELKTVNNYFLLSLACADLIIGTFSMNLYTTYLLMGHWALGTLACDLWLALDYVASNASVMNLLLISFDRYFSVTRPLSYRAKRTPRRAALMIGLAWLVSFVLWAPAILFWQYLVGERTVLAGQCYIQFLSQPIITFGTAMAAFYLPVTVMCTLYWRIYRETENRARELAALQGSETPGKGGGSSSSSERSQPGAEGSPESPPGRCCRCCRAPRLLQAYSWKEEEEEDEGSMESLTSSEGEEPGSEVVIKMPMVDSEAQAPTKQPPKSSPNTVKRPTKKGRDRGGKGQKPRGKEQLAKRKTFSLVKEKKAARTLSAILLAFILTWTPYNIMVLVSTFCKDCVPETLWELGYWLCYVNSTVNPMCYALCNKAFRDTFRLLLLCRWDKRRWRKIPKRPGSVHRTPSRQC

[2] = test system: vesicular stomatitis virus (VSV); type: cell-based; details: VSV-infected L cells, FIGS. 36-39
[3] = test system: mouse and human fibroblasts; details: previously reported; cited from earlier work
[4] = test system: normal human keratinocytes; assay: metabolic rate of EGF-starved normal human keratinocytes; type: cell-based
Procedure: Normal human keratinocytes require epidermal growth factor (EGF) for proliferation without differentiation. Keratinocytes (from Clonetics, Inc.) were cultured in the absence of EGF for a period of 24 hours prior to the experiment. For the experiment, the keratinocytes were assembled into four flow chambers and the alternating stop-flow sequence was initiated with medium containing no EGF. At the time indicated by the arrow in FIG. 43, the syringes containing medium were changed on all four flow chambers. The second medium contained 5 ng/ml mouse EGF, or 1.25 μg/ml of a neutralizing rabbit anti-mouse-EGF polyclonal IgC, or both. A control with no EGF or IgC was also run. […] Addition of the anti-EGF antibody alone had no effect.
In a separate experiment, the growth medium for the normal human epidermal keratinocytes contained 10 ng/mL murine EGF, a substance found to be mitogenic for keratinocytes. […] It does show the same rising baseline, which probably indicates some combination of cell proliferation and adaptation to the environmental conditions in the flow chamber.
Stimulation of acidification rate was observable down to 0.1 ng/mL EGF. In a control experiment, the stimulation was abolished by a monoclonal antibody to EGF that is known to block receptor binding.

For CN1[C@@H]2CC[C@H]1C[C@@H](OC(=O)C(CO)c1ccccc1)C2 (stereo partly drawn) [Atropine], the “effect on cells alone” value [1] was “no significant effect”.

In the case of NC(=O)c1ncn([C@@H]2O[C@H](CO)[C@@H](O)[C@H]2O)n1 [ribavirin], the “effect on VSV-induced change of host cell metabolism” value [2] is reported as “inhibition”.

For “EGF: epidermal growth factor (mouse EGF) (NSYPGCPSSYDGYCLNGGVCMHIESLDSYTCNCVIGYSGDRCQTRDLRWWELR; Epidermal growth factor; UniProt P01132 977-1029, looked up)”, the “effect on glycolytic rate” value [3] is listed as “rapid increase in glycolytic rate”, the “metabolic response of keratinocytes to EGF” value ([4]; 5 ng/ml mouse EGF, FIG. 43) is listed as “metabolic burst” and the “metabolic rate at the peak” value ([4]; 50 ng/mL EGF, FIG. 44) is listed as “nearly doubled”. The “time from peak to decay to a steadily rising baseline” value ([4]; 50 ng/mL EGF, FIG. 44) was 15 min, the “time to peak of response” value ([4]; 50 ng/mL EGF, FIG. 44) was ~ 15 min and the “time to rise in metabolic rate” value ([4]; 50 ng/mL EGF, FIG. 44) was no more than 5 min. The “lowest concentration with observable stimulation of acidification rate” value ([4]; EGF) was 0.1 ng/mL.

— patent US5496697A, “Methods and apparatus for detecting the effect of cell affecting agents on living cells” (priority 1993, dated 1996)
